{"source": "patent US20030165475A1", "about": "“Non-lethal methods for conditioning a recipient for bone marrow transplantation” (priority 1993, published 2003)", "key": {"[1]": {"test_system": "CD4-KO mice", "conditions": "300 cGy TBI + 200 mg/kg CyP", "excerpt": "Three to five week old C57BL/10-Cd4^tml(CD4-KO;H2^b, n=5), C57BL/6J-CD4^tm/mak (CD4-KO; H2^b, n=15) CD57BL/6JCD8α^tm/mak (CD8-KO; H2^b, n=16), C57BL/6J (B6; H2^b, n=6), C57BL/6-6d4^tm/mak (CD4-KO) and C57BL/6-Cd8^tm/mak (CD8-KO)recipient mice, as well as three to five week old B10.BR/SgSnJ (B10.BR, H2^k) donor mice were purchased from the Jackson Laboratory (Bar Harbor, Me.). Knock-out mice were housed in a special pathogen-free barrier facility, while donor mice were housed in a conventional barrier animal facility. Mice were cared for according to National Institute of Health animal care guidelines.\nBone marrow was prepared as previously described (Ildstad and Sachs, Nature, 307:168 (1984)). Briefly, B10.BR donor mice were euthanized and tibias and femurs harvested. Bone marrow was expelled from the bones with Media 199 (Gibco, Grand Island, N.Y.) containing 10 μg/ml Gentamicin (Gibco) (MEM). The cells were filtered through sterile nylon mesh with 100 μm pores, spun for minutes at 200×g and 4° C., and resuspended in MEM. A cell count was performed and the cells were diluted to a final concentration of 15×10^6 bone marrow cells per 1 ml of MEM.\nCD4-KO and CD8-KO mice were treated with TBI from a cesium source (Gamma-cell 40, Nordion, Ontario, Canada). Doses from 0 to 300 cGy were administered according to the experimental groups. Animals were transplanted with 1 ml MEM containing 15×10^6 B10.BR bone marrow cells via lateral tail vein injection within 4 hours after irradiation.\nPeripheral blood was obtained from the mice by tail-vein bleeding. The blood was collected in heparinized Eppendorf tubes 28 days, 3 months and 6 months after BMT. Fifty μl of whole blood were incubated for 7 minutes with 2 ml of lysing buffer (8.29 g of NH4Cl, 1.0 g of KHCO3 and 0.0372 g Na2EDTA in 1 liter H2O to lyse red blood cells. The cells were washed with 2 ml FACS medium (0.36 g NaHCO3, 1.0 g NaN3 and 1.0 g bovine serum albumin in 1 liter Hanks Balanced Salt Solution and spun at 200×g for 10 minutes at 4° C. After the supernatant was carefully decanted, cells were mixed with 10 μl diluted monoclonal antibodies (mAb; details discussed infra) and incubated for 30 minutes at 4° C. in the dark. The appropriate dilution for the use of the mAb was determined in titration experiments prior to use. After the incubation, the cells were washed twice with 2 ml of FACS medium and spun at 200×g for minutes at 4° C. Finally, the cells were fixed with 1% paraformaldehyde in PBS. The analyses were carried out on a FACS-Calibur (Becton Dickinson, Mountain View, Calif.) with CellQuest software (Becton Dickinson).\nPBL were stained with mAb specific for MHC Class I antigens of donor (FITC conjugated anti-H2K^k, 36-7-5, mouse IgG1) and recipient (PE-conjugated anti-H2K^b, AF6-88.5, mouse IgG2a) origin to determine the percentage of donor chimerism. Multi-lineage engraftment was assessed by staining with biotinylated anti-H2K^k (36-7-5, mouse IgG1), FITC-conjugated anti-H2K^b (AF6-88.5, mouse IgG2a) and PE-conjugated lineage markers 3 months after BMT. The biotinylated antibody was recovered with Streptavidin-Allophycocyanin (SA-APC). The following antibodies were used as lineage markers: anti-GR-1 (RB6-8C5, rat IgG2^b); anti-MAC-1 (M1/70, rat IgG2^b); anti-CD4 (RM4-5, rat IgG2a); anti-CD8α (53-6.7, rat IgG2a); anti-B220 (RA3-6B2, rat IgG2a); anti-NK1.1 (PK136, mouse IgG2a); anti-TCR-β chain (H57-597, hamster IgG); and anti-γδ-TCR (GL3, hamster IgG). Non-specific background staining was controlled for by using isotype control antibodies directed against irrelevant antigens and conjugated with the same color as the experimental antibody (i.e., anti-TNP mouse IgG2a conjugated with PE served as isotype control for PE-conjugated anti-H2K^b mouse IgG2a). All mAb were obtained from PharMingen (San Diego, Calif.). SA-APC was purchased from Becton Dickinson (Mountain View, Calif.)."}, "[2]": {"test_system": "NOD mice", "assay": "Partial conditioning for HSC chimerism in NOD mice", "type": "in vivo, mouse", "excerpt": "Often, higher doses of donor cells are required for engraftment as well as higher doses of conditioning to make space. […] One of the goals of the present studies was to identify a strategy to overcome the alloresistance to chimerism in NOD mice by further reducing the irradiation dose for conditioning.\nThe animals were transplanted with 55×10^6 or 60×10^6 B10.BR/SgnSnJ bone marrow cells, respectively."}, "[3]": {"test_system": "baboon", "conditions": "CyP day -3, -2, -1 + 9.5 Gy TLI day 0", "description": "In the following study, baboons were treated with a single dose of 7.5 Gy of TLI at day 0 followed by transfer of allogeneic baboon bone marrow cells with at least one MHC disparity. […] Xenogeneic transplantation with human cells was also performed in baboons conditioned with TLI."}, "[4]": {"test_system": "B10 mice", "conditions": "for NO. OF ANIMALS ENGRAFTED: 300 cGy", "description": "Recipients were characterized for donor cell engraftment using flow cytometry (FACS II, Becton Dickinson; Mountain View, Calif.) to determine the presence of peripheral blood lymphocytes bearing H-2^b, H-2^k, and H-2^d encoded antigens as described (Jeffries et al., 1985, J Exp Med 117:127).\nBriefly, peripheral blood was collected through tail bleeding into heparinized plastic serum vials. 2001 μl of Medium 199 (Gibco Laboratories; Grand Island, N.Y.) were added to each vial. After thorough mixing, the suspension was layered over 1.5 ml of room temperature Lymphocyte Separation Medium (LSM) (Organon Teknika; Durham, N.C.) and centrifuged at 37° C. (400g×20 minutes). The buffy coat layer was aspirated from the Medium 199-LSM interface and washed with medium. Lymphocytes were stained with fluorescein-conjugated monoclonal antibodies for donor- and host-specific class I antibodies H2K^b (AF6-88.5), H2K^d (SF1-1.1), and H2K^k (AF3-12.1) (Pharmingen) conjugated with fluorescein and lineage markers conjugated with PE α β-TCR (H57-597), CD4 (L3T4), CD8 (Ly2), NK1.1 (PK136), and CD45R/B220 (RA3-603) (Pharmingen) and MAC-1 (M1/70) (Boehringer Mannheim, Indianapolis, Ind.) for 45 minutes at 4° C."}, "[5]": {"conditions": "600 cGy TBI + CyP 50 mg/kg i.p. two days after BMT, 60 × 10^6 B10.BR cells"}}, "note": "Where two headings read alike, the source gives them in different places."}
{"smiles": "O=P1(N(CCCl)CCCl)NCCCO1", "note": "(stereo not shown) [CyP, cyclophosphamide]", "values": [{"measurement": "CD4-KO mice that engrafted", "setting": "[1]; 15 C57BL/6-Cd4 tm/mak mice", "value": "None"}, {"measurement": "% animals that engrafted", "setting": "[1]; C57BL/6-Cd4 tm/mak (n=15)", "value": 0, "unit": "%"}, {"measurement": "% animals that engrafted", "setting": "[1]; C57BL/10-Cd4 tml (n=5)", "value": 0, "unit": "%"}, {"measurement": "ANIMALS WITH ENGRAFTMENT", "setting": "[2]; 600 cGy TBI + 100 μg mAb i.v. day 5, 3, 1 prior, or + 200 mg/kg CyP i.p. two days after, 55 or 60 × 10^6 B10.BR cells", "value": "4/4"}, {"measurement": "donor chimerism", "setting": "[2]; [5]", "value": 91.5, "unit": "%"}, {"measurement": "engraftment", "setting": "[2]; [5]", "value": 100, "unit": "%"}, {"measurement": "animals engrafted", "setting": "[2]; 600 cGy TBI + single dose CyP 200 mg/kg", "value": 100, "unit": "%"}, {"measurement": "GVHD / morbidity", "setting": "[3]", "value": "no GVHD or significant morbidity"}, {"measurement": "chimerism, human cells", "setting": "[3]; two months after transplantation", "value": 15, "unit": "%"}, {"measurement": "recipients engrafted", "setting": "[4]; 50 mg/kg CyP or more on day 2 with ALG plus 300 cGy TBI", "value": "more than 85%"}, {"measurement": "NO. OF ANIMALS ENGRAFTED", "setting": "[4]; CyP 50 mg/kg day 2, 1 MG ALG", "value": "2/2"}, {"measurement": "NO. OF ANIMALS ENGRAFTED", "setting": "[4]; CyP 50 mg/kg day 2, 2 MG ALG", "value": "1/1"}, {"measurement": "NO. OF ANIMALS ENGRAFTED", "setting": "[4]; CyP 50 mg/kg day 2, TOTAL", "value": "3/3"}, {"measurement": "NO. OF ANIMALS ENGRAFTED", "setting": "[4]; CyP 100 mg/kg day 2, 1 MG ALG", "value": "2/2"}, {"measurement": "NO. OF ANIMALS ENGRAFTED", "setting": "[4]; CyP 100 mg/kg day 2, 2 MG ALG", "value": "2/2"}, {"measurement": "NO. OF ANIMALS ENGRAFTED", "setting": "[4]; CyP 100 mg/kg day 2, TOTAL", "value": "4/4"}, {"measurement": "NO. OF ANIMALS ENGRAFTED", "setting": "[4]; CyP 150 mg/kg day 2, 1 MG ALG", "value": "3/4"}, {"measurement": "NO. OF ANIMALS ENGRAFTED", "setting": "[4]; CyP 150 mg/kg day 2, 2 MG ALG", "value": "2/2"}, {"measurement": "NO. OF ANIMALS ENGRAFTED", "setting": "[4]; CyP 150 mg/kg day 2, TOTAL", "value": "5/6"}, {"measurement": "NO. OF ANIMALS ENGRAFTED", "setting": "[4]; CyP 200 mg/kg day 2, 1 MG ALG", "value": "5/6"}, {"measurement": "NO. OF ANIMALS ENGRAFTED", "setting": "[4]; CyP 200 mg/kg day 2, 2 MG ALG", "value": "7/8"}, {"measurement": "NO. OF ANIMALS ENGRAFTED", "setting": "[4]; CyP 200 mg/kg day 2, TOTAL", "value": "12/14"}]}
